Source: patent EP0823908B1, “PYRIDO[2,3-d]PYRIMIDINES FOR INHIBITING PROTEIN TYROSINE KINASE MEDIATED [sequence] PROLIFERATION” (Warner-Lambert Company LLC, priority 1995, dated 1996)
Where two headings read alike, the source gives them in different places.

What was measured:
Type in all cases: biochemical
[1] = target: T1, Human EGF receptor tyrosine kinase (Homo sapiens, UniProt P00533); assay: EGF receptor tyrosine kinase enzyme assay (substrate peptide phosphorylation); conditions: for inhibition at 50 µM: read-out: EGF-FL % Inhibition at 50 µM; for IC50: read-out: EGF-FL IC50
T1 construct: Human EGF receptor tyrosine kinase was isolated from A431 epidermoid carcinoma cells; endogenous in cells; host or cells: A431 epidermoid carcinoma cells
Method: Human EGF receptor tyrosine kinase was isolated from A431 epidermoid carcinoma cells by the following methods. Cells were grown in roller bottles in 50% Dulbecco's Modified Eagle medium and 50% HAM F-12 nutrient media (Gibco) containing 10% fetal calf serum. Approximately 10^9 cells were lysed in two volumes of buffer containing 20 mM 2-(4N-[2-hydroxymethyl]-piperazin-1-yl)ethanesulfonic acid, pH 7.4, 5 mM ethylene glycol bis(2-aminoethyl ether) N,N,N',N'-tetraacetic acid, 1% Triton X-100, 10% glycerol, 0.1 mM sodium orthovanadate, 5 mM sodium fluoride, 4 mM pyrophosphate, 4 mM benzamide, 1 mM dithiothreitol, 80 µg/mL aprotinin, 40 µg/mL leupeptin, and 1 mM phenylmethylsulfonyl fluoride. […] Contaminating proteins were washed from the resin with 1 M NaCl in equilibration buffer, and the enzyme was eluted with 0.5 M N-acetyl-1-D-glucosamine in equilibration buffer.
The reaction was terminated by the addition of 2 mL of 75 mM phosphoric acid and passed through a 2.5-cm phosphocellulose filter disc to bind the peptide. The filter was washed 5 times with 75 mM phosphoric acid and placed in a vial along with 5 mL of scintillation fluid (Ready gel Heckman).

C-src kinase = target: T2, C-src kinase (Homo sapiens, UniProt P12931); assay: C-src kinase assay (poly GluTyr substrate); conditions: for IC50: read-out: C-src TK IC50; for inhibition at 50 µM: read-out: C-src TK % Inhibition at 50 µM
T2 construct: made in house; host or cells: baculovirus infected insect cells
Method: V-src or C-src kinase is purified from baculovirus infected insect cell lysates using an antipeptide monoclonal antibody directed against the N-terminal 2-17 amino acids. The antibody, covalently linked to 0.65-µm latex beads, is added to a suspension of insect cell lysis buffer comprised of 150 mM NaCl, 50 mM Tris pH 7.5, 1 mM DTT, 1% NP-40, 2 mM EGTA, 1 mM sodium vanadate, 1 mM PMSF, 1 µg/mL each of leupeptin, pepstatin, and aprotinin. […] At the end of the lysate incubation, the beads are rinsed 3 times in lysis buffer, resuspended in lysis buffer containing 10% glycerol, and frozen. These latex beads are thawed, rinsed 3 times in assay buffer which is comprised of 40 mM tris pH 7.5, 5 mM MgCl2, and suspended in the same buffer. In a Millipore 96-well plate with a 0.65 µm polyvinylidine membrane bottom are added the reaction components: 10-µL V-src or C-src beads, 10 µL of 2.5 mg/mL poly GluTyr substrate, 5 µM ATP containing 0.2 µCi labeled ^32P-ATP, 5µL DMSO containing inhibitors or as a solvent control, and buffer to make the final volume 125 µL. The reaction is started at room temperature by addition of the ATP and quenched 10 minutes later by the addition of 125 µL of 30% TCA, 0.1 M sodium pyrophosphate for 5 minutes on ice. […] The filters are punched, counted in a liquid scintillation counter, and the data examined for inhibitory activity in comparison to a known inhibitor such as erbstatin.

[2] = target: T3, mouse PDGF-β receptor tyrosine kinase (Mus musculus, UniProt P05622); assay: PDGF receptor tyrosine kinase assay (32P incorporation into glutamate-tyrosine co-polymer); conditions: for IC50: read-out: PDGFr-TK IC50; for inhibition at 50 µM: read-out: PDGFr-TK % Inhibition at 50 µM
T3 construct: amplify a fragment of DNA that codes for the intracellular tyrosine kinase domain; made in house; host or cells: SF9 insect cells (baculovirus)
Excerpt: (§1) Full length cDNAs for the mouse PDGF-β and human FGF-1 (flg) receptor tyrosine kinases were obtained from J. Escobedo and prepared as described in J. Biol. Chem., 262:1482-1487 […], and PCR primers were designed to amplify a fragment of DNA that codes for the intracellular tyrosine kinase domain. The fragment was melded into a baculovirus vector, cotransfected with AcMNPV DNA, and the recombinant virus isolated. SF9 insect cells were infected with the virus to overexpress the protein, and the cell lysate was used for the assay. The assay was performed in 96-well plates (100 µL/incubation/well), and conditions were optimized to measure the incorporation of ^32P from γ^32P-ATP into a glutamate-tyrosine co-polymer substrate. Briefly, to each well was added 82.5 µL of incubation buffer containing 25 mM Hepes (pH 7.0), 150 mM NaCl, 0.1% Triton X-100, 0.2 mM PMSF, 0.2 mM Na3VO4, 10 mM MnCl2, and 750 µg/mL of Poly (4:1) glutamate-tyrosine followed by 2.5 µL of inhibitor and 5µL of enzyme lysate (7.5 µg/µL FGF-TK or 6.0 µg/µL PDGF-TK) to initiate the reaction. Following a 10 minute incubation at 25°C, 10 µL of γ^32P-ATP (0.4 µCi plus 50 µM ATP) was added to each well and samples were incubated for an additional 10 minutes at 25°C. The reaction was terminated by the addition of 100 µL of 30% trichloroacetic acid (TCA) containing 20 mM sodium pyrophosphate and precipitation of material onto glass fiber filter mats (Wallac). […] Nonspecific activity was defined as radioactivity retained on the filters following incubation of samples with buffer alone (no enzyme). Specific enzymatic activity was defined as total activity (enzyme plus buffer) minus nonspecific activity.

[3] = target: T4, human FGF-1 (flg) receptor tyrosine kinase (Homo sapiens, UniProt P11362); assay: FGF receptor tyrosine kinase assay (32P incorporation into glutamate-tyrosine co-polymer); conditions: for inhibition at 50 µM: read-out: FGFr-TK % Inhibition at 50 µM
T4 construct: amplify a fragment of DNA that codes for the intracellular tyrosine kinase domain; made in house; host or cells: SF9 insect cells (baculovirus)
Excerpt: as §1

T4 sequence (P11362 478-767 limits assumed): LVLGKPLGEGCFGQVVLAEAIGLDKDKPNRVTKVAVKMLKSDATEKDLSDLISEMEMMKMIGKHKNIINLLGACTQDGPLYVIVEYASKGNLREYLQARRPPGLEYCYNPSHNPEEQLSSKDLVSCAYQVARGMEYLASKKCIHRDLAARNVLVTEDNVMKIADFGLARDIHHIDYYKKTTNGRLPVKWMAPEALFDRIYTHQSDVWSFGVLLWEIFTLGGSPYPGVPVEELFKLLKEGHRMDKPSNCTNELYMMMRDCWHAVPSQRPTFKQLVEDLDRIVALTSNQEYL
T2 sequence (P12931 whole entry): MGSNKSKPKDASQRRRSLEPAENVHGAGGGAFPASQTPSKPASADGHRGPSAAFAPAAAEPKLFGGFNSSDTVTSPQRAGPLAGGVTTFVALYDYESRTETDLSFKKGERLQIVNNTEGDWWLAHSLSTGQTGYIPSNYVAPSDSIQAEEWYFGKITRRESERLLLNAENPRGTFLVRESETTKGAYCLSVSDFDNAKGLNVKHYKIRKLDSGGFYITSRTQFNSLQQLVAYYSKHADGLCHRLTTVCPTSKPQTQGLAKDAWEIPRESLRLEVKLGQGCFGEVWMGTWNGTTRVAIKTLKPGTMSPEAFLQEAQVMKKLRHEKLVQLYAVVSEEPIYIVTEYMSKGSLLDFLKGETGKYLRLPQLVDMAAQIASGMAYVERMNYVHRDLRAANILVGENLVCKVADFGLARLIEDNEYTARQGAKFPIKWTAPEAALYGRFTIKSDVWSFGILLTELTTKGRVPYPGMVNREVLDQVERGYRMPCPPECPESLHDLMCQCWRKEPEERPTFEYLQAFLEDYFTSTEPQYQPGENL
T1 sequence (P00533 25-1210): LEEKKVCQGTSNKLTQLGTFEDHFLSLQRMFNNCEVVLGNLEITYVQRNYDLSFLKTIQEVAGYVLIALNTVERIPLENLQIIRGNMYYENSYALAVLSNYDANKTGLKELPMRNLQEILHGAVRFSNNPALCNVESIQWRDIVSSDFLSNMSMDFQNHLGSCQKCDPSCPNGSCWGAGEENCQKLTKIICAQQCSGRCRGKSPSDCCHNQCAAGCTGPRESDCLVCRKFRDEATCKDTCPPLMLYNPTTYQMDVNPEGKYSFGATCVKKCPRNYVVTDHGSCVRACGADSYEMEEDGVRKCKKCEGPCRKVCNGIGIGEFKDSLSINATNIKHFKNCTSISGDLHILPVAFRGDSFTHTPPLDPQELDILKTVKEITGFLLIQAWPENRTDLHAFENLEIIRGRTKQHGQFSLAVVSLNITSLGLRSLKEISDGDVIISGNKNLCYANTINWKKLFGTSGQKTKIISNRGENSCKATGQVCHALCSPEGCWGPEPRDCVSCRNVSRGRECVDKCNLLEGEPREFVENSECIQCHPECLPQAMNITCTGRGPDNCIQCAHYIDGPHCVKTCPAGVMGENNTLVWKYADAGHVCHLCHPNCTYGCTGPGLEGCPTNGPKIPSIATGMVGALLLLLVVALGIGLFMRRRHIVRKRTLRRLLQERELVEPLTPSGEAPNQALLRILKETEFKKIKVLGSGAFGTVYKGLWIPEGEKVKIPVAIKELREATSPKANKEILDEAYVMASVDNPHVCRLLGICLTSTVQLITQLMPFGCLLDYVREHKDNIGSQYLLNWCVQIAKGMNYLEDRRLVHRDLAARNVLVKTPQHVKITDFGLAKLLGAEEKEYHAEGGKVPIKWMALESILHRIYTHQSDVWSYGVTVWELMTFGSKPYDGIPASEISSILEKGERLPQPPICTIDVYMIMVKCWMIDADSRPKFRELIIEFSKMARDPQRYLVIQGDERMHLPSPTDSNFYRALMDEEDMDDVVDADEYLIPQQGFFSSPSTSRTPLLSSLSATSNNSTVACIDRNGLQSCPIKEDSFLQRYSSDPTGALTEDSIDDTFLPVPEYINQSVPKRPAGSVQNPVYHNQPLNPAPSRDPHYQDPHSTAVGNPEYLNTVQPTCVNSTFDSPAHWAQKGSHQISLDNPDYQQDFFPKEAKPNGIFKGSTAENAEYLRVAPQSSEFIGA
T3 sequence (P05622 599-961 limits assumed): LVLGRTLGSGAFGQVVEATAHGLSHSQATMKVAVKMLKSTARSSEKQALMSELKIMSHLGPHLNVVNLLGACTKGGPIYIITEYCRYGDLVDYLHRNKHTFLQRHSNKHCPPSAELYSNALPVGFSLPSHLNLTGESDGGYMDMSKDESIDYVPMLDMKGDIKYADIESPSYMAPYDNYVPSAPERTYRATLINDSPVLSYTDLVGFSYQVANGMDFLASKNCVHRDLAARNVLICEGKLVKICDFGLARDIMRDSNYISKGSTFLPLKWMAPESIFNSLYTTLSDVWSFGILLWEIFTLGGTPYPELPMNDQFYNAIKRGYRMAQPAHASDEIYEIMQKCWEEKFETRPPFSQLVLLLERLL

## Cc1cccc(C)c1-c1cc2cnc(N)nc2n(C)c1=O [Example 13, 2-Amino-6-(2,6-dimethylphenyl)-8-methyl-pyrido[2,3-d]-pyrimidin-7(8H)-one]
[1]
  inhibition at 50 µM: 88%
C-src kinase
  IC50: 0.29 µM
[2]
  IC50: 2.56 µM
[3]; read-out: FGFr-TK IC50
  IC50: 6.2 µM

## Cc1ccccc1-c1cc2cnc(N)nc2n(C)c1=O [Example 14, 2-Amino-6-(2-methylphenyl)-8-methyl-pyrido[2,3-d]-pyrimidin-7(8H)-one]
[1]
  inhibition at 50 µM: 65%
C-src kinase
  IC50: 3.92 µM
[2]
  IC50: 1.41 µM
[3]; read-out: FGFr-TK IC50
  IC50: 7.65 µM

## CCCn1c(=O)c(-c2c(Cl)cccc2Cl)cc2cnc(N)nc21 [Example 31, 2-Amino-6-(2,6-dichlorophenyl)-8-propyl-8H-pyrido[2,3-d]pyrimidin-7-one]
[1]
  inhibition at 50 µM: 100%
C-src kinase
  inhibition at 50 µM: 100%
[2]
  IC50: 1.2 µM
[3]; read-out: FGFr-TK IC50
  IC50: 0.46 µM

## CCCCn1c(=O)c(-c2c(Cl)cccc2Cl)cc2cnc(N)nc21 [Example 32, 2-Amino-8-butyl-6-(2,6-dichlorophenyl)-8H-pyrido[2,3-d]pyrimidin-7-one]
[1]
  inhibition at 50 µM: 100%
C-src kinase
  inhibition at 50 µM: 33%
[2]
  IC50: 0.875 µM
[3]; read-out: FGFr-TK IC50
  IC50: 0.737 µM

## CC(C)Cn1c(=O)c(-c2c(Cl)cccc2Cl)cc2cnc(N)nc21 [Example 33, 2-Amino-6-(2,6-dichlorophenyl)-8-isobutyl-8H-pyrido[2,3-d]pyrimidin-7-one]
[1]
  inhibition at 50 µM: 95%
C-src kinase
  IC50: 0.89 µM
[2]
  IC50: 1.84 µM
[3]; read-out: FGFr-TK IC50
  IC50: 0.426 µM

## CN(C)CCCn1c(=O)c(-c2c(Cl)cccc2Cl)cc2cnc(N)nc21 [Example 34, 2-Amino-6-(2,6-dichlorophenyl)-8-(3-dimethylaminopropyl)-8H-pyrido[2,3-d]pyrimidin-7-one]
[1]
  IC50: 2.9 µM
C-src kinase
  IC50: 0.037 µM
[2]
  IC50: 2.73 µM
[3]; read-out: FGFr-TK IC50
  IC50: 1.2 µM

## COC(=O)Cn1c(=O)c(-c2c(Cl)cccc2Cl)cc2cnc(N)nc21 [Example 35, [2-Amino-6-(2,6-dichlorophenyl)-7-oxo-7H-pyrido[2,3-d]-pyrimiclin-8-yl]-acetic acid methyl ester]
[1]
  IC50: 1.2 µM
C-src kinase
  IC50: 0.34 µM
[2]
  IC50: 3.57 µM
[3]; read-out: FGFr-TK IC50
  IC50: 1.91 µM

## CSc1ncc2cc(-c3c(Cl)cccc3Cl)c(=O)n(C)c2n1 [Example 37, 6-(2,6-Dichlorophenyl)-8-methyl-2-methylsulfanyl-8H pyrido[2,3-d]pyrimidin-7-one]
[1]
  inhibition at 50 µM: 42%
C-src kinase
  inhibition at 50 µM: 33%
[2]
  inhibition at 50 µM: 33%
[3]
  inhibition at 50 µM: 29%

## Cn1c(=O)c(-c2c(Cl)cccc2Cl)cc2cnc(S(C)(=O)=O)nc21 [Example 39, 6-(2,6-Dichlorophenyl)-2-methanesulfonyl-8-methyl-8H-pyrido[2,3-d]pyrimidin-7-one]
[1]
  inhibition at 50 µM: 24%
C-src kinase
  inhibition at 50 µM: 26%
[2]
  inhibition at 50 µM: 19%
[3]; read-out: FGFr-TK IC50
  IC50: 5.5 µM

## CN(C)c1ncc2cc(-c3c(Cl)cccc3Cl)c(=O)n(C)c2n1 [Example 41, 6-(2,6-Dichlorophenyl)-2-dimethylamino-8-methyl-8H-pyrido[2,3-d]pyrimidin-7-one]
[1]
  inhibition at 50 µM: 52%
C-src kinase
  inhibition at 50 µM: 12%
[2]
  inhibition at 50 µM: 16%
[3]
  inhibition at 50 µM: 0%

## CCNc1ncc2cc(-c3c(Cl)cccc3Cl)c(=O)n(C)c2n1 [Example 42, 6-(2,6-Dichlorophenyl)-2-ethylamino-8-methyl-8H-pyrido[2,3-d]dlpyrimidin-7-one]
[1]
  inhibition at 50 µM: 82%
C-src kinase
  IC50: 0.588 µM
[2]
  IC50: 4.49 µM
[3]; read-out: FGFr-TK IC50
  IC50: 0.8 µM

## Cn1c(=O)c(-c2c(Cl)cccc2Cl)cc2cnc(NCCO)nc21 [Example 43, 6-(2,6-Dichlorophenyl)-2-(2-hydroxyethylamino)-8-methyl-8H-pyrido[2,3-d]pyrimidin-7-one]
[1]
  inhibition at 50 µM: 67%
C-src kinase
  IC50: 0.325 µM
[2]
  IC50: 5.35 µM
[3]; read-out: FGFr-TK IC50
  IC50: 1.35 µM

## CC(C)Nc1ncc2cc(-c3c(Cl)cccc3Cl)c(=O)n(C)c2n1 [Example 44, 6-(2,6-Dichlorophenyl)-2-isopropylamino-8-methyl-8H-pyrido[2,3-d]pyrimidin-7-one]
[1]
  inhibition at 50 µM: 64%
C-src kinase
  IC50: 1.57 µM
[2]
  IC50: 2.09 µM
[3]; read-out: FGFr-TK IC50
  IC50: 0.88 µM

## CCCCNc1ncc2cc(-c3c(Cl)cccc3Cl)c(=O)n(C)c2n1 [Example 45, 2-Butylamino-6-(2,6-dichlorophenyl)-8-methyl-8H-pyrido[2,3-d]pyrimidin-7-one]
[1]
  inhibition at 50 µM: 85%
C-src kinase
  IC50: 2.39 µM
[2]
  IC50: 5.68 µM
[3]; read-out: FGFr-TK IC50
  IC50: 4.04 µM

## COc1ccc(CCNc2ncc3cc(-c4c(Cl)cccc4Cl)c(=O)n(C)c3n2)cc1OC [Example 48, 6-(2,6-Dichlorophenyl)-2-[2-(3,4-dimethoxyphenyl)-ethylamino]-8-methyl-8H-pyrido[2,3-d]pyrimidin-7-one]
[1]
  inhibition at 50 µM: 64%
C-src kinase
  IC50: 2.54 µM
[2]
  IC50: 17.9 µM
[3]; read-out: FGFr-TK IC50
  IC50: 19.6 µM

## Cn1c(=O)c(-c2c(Cl)cccc2Cl)cc2cnc(NCc3ccccn3)nc21 [Example 49, 6-(2,6-Dichlorophenyl)-8-methyl-2-[(pyridin-2-ylmethyl)-amino]-8H-pyrido[2,3-d]pyrimidin-7-one]
[1]
  inhibition at 50 µM: 61%
C-src kinase
  IC50: 0.813 µM
[2]
  IC50: 4.65 µM
[3]; read-out: FGFr-TK IC50
  IC50: 4.01 µM

## Cn1c(=O)c(-c2c(Cl)cccc2Cl)cc2cnc(NCc3cccnc3)nc21 [Example 50, 6-(2,6-Dichlorophenyl)-8-methyl-2-[(pyridin-3-ylmethyl)-amino]-8H-pyrido[2,3-d]pyrimidin-7-one]
[1]
  inhibition at 50 µM: 59%
C-src kinase
  IC50: 3.24 µM
[2]
  IC50: 7.31 µM
[3]; read-out: FGFr-TK IC50
  IC50: 4.17 µM

## Cn1c(=O)c(-c2c(Cl)cccc2Cl)cc2cnc(Nc3cccnc3)nc21 [Example 79, 6-(2,6-Dichlorophenyl)-8-methyl-2-(pyridin-3-ylamino)-8H-pyrido[2,3-d]pyrimidin-7-one]
[1]
  IC50: 0.11 µM
C-src kinase
  IC50: 0.044 µM
[3]
  IC50: 0.172 µM

## CN1CCN(CCCCCNc2ncc3cc(-c4c(Cl)cccc4Cl)c(=O)n(C)c3n2)CC1 [Example 81, 6-(2,6-Dichlorophenyl)-8-methyl-2-[5-(4-methylpiperazin-1-yl)-pentylamino]-8H-pyrido[2,3-d]pyrimdin-7-one]
[1]
  IC50: 4.5 µM
C-src kinase
  inhibition at 50 µM: 94%
[2]
  IC50: 0.743 µM

## Nc1ncc2cc(-c3c(Cl)cccc3Cl)c(=O)n(Cc3ccncc3)c2n1 [Example 113, 2-Amino-6-(2,6-dichlorophenyl)-8-pyridin-4-ylmethyl-8H-pyrido[2,3-d]pyrimidin-7-one]
[1]
  IC50: 6.7 µM
C-src kinase
  inhibition at 50 µM: 87%
[2]
  IC50: 1.76 µM
